Reference: patent publication US11447505B1, “Pyrrolo[2,3-b]pyridine compounds and their use in the treatment of cancer” (priority 2017, dated 2022)

Assays:
[1] = biological target: MRCKα (Homo sapiens (Human), UniProt Q5VT25); assay: MRCKα kinase assay (IMAP fluorescence polarization); assay type: biochemical; conditions: 1 μM ATP; read-out: MRCK-a Average Ki
Source text: (§1) MRCKα, MRCKβ, ROCK1 and ROCK2 Kinase Assays

[2] = biological target: ROCK1 (Homo sapiens (Human), UniProt Q13464); conditions: read-out: ROCK1 Average Ki; 1 μM ATP
Chain of ROCK1 (Q13464 2-1354 limits assumed): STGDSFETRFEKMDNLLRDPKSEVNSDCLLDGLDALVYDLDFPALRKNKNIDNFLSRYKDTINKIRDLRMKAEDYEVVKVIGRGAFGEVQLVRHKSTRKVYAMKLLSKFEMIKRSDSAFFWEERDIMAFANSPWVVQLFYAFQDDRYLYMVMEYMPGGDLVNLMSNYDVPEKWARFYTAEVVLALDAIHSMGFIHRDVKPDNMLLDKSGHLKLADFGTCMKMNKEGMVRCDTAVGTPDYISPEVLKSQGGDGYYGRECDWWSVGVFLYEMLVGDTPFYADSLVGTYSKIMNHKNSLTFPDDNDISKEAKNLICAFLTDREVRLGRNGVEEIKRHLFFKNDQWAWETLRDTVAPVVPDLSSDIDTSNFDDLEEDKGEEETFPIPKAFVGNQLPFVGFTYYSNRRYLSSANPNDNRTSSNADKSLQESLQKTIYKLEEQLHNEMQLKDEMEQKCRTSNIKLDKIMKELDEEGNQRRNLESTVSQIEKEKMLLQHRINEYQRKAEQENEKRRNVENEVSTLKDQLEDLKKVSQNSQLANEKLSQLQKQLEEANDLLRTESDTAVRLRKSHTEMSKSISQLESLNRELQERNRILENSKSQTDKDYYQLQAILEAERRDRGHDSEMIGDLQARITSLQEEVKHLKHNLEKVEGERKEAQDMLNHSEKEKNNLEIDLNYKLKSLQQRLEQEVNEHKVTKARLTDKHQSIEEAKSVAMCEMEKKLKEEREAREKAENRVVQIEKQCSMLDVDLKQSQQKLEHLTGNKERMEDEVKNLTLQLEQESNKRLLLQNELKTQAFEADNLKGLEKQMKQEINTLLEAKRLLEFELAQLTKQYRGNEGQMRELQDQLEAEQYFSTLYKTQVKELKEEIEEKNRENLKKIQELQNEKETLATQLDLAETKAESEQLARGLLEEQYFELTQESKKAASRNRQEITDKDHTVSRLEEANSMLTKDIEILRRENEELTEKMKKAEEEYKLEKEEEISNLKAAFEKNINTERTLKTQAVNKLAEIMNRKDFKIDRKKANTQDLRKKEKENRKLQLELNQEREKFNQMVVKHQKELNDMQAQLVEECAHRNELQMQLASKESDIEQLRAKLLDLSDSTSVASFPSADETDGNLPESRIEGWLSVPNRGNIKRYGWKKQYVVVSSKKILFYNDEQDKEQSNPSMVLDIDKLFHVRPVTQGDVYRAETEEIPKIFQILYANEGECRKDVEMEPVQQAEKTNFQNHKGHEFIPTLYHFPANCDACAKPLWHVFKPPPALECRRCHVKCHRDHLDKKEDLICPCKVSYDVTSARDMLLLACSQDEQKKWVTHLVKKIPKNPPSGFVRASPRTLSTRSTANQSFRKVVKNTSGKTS

[3] = biological target: MRCKβ (Homo sapiens (Human), UniProt Q9Y5S2); assay: MRCKβ kinase assay (IMAP fluorescence polarization); assay type: biochemical; conditions: 1 μM ATP; read-out: MRCK-B Average Ki
Source text: as §1

[4] = biological target: ROCK2 (Homo sapiens (Human), UniProt O75116); assay: ROCK2 kinase assay (IMAP fluorescence polarization); assay type: biochemical; conditions: 1 μM ATP; read-out: ROCK2 Average Ki
Chain of ROCK2 (O75116 whole entry): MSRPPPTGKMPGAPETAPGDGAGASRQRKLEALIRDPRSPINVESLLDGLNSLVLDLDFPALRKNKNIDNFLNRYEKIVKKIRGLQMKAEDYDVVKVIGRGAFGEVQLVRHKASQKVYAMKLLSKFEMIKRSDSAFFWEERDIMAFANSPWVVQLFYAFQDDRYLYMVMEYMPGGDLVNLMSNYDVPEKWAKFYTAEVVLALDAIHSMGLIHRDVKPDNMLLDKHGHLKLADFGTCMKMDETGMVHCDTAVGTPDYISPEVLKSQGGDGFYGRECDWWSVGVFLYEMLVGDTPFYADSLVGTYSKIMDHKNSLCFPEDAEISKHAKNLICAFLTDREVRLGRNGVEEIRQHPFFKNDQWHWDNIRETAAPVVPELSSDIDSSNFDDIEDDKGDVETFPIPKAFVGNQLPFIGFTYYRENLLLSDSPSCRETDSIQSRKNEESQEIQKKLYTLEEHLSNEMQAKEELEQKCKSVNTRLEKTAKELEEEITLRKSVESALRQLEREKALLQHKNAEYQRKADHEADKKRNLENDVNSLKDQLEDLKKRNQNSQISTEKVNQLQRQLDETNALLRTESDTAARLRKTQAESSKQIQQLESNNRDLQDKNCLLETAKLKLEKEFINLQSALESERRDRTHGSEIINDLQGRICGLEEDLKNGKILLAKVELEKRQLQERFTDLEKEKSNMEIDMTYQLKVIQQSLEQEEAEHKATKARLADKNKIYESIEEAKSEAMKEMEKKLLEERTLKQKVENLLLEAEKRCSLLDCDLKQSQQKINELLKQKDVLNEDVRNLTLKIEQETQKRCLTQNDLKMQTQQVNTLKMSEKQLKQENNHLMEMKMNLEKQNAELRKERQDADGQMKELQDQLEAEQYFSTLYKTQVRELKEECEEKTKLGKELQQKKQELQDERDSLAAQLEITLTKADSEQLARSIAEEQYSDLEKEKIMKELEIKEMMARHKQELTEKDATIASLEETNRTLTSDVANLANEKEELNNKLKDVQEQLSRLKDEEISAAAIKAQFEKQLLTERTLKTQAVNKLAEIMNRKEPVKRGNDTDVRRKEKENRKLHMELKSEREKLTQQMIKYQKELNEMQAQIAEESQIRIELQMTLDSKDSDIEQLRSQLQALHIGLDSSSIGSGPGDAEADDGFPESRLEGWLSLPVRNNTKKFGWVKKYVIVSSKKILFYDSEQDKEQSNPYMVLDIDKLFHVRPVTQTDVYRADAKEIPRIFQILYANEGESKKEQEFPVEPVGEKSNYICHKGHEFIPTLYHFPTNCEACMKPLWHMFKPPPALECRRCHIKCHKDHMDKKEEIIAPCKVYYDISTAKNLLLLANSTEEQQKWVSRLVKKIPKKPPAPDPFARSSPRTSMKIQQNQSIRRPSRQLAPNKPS

Chain of MRCKα (Q5VT25 whole entry): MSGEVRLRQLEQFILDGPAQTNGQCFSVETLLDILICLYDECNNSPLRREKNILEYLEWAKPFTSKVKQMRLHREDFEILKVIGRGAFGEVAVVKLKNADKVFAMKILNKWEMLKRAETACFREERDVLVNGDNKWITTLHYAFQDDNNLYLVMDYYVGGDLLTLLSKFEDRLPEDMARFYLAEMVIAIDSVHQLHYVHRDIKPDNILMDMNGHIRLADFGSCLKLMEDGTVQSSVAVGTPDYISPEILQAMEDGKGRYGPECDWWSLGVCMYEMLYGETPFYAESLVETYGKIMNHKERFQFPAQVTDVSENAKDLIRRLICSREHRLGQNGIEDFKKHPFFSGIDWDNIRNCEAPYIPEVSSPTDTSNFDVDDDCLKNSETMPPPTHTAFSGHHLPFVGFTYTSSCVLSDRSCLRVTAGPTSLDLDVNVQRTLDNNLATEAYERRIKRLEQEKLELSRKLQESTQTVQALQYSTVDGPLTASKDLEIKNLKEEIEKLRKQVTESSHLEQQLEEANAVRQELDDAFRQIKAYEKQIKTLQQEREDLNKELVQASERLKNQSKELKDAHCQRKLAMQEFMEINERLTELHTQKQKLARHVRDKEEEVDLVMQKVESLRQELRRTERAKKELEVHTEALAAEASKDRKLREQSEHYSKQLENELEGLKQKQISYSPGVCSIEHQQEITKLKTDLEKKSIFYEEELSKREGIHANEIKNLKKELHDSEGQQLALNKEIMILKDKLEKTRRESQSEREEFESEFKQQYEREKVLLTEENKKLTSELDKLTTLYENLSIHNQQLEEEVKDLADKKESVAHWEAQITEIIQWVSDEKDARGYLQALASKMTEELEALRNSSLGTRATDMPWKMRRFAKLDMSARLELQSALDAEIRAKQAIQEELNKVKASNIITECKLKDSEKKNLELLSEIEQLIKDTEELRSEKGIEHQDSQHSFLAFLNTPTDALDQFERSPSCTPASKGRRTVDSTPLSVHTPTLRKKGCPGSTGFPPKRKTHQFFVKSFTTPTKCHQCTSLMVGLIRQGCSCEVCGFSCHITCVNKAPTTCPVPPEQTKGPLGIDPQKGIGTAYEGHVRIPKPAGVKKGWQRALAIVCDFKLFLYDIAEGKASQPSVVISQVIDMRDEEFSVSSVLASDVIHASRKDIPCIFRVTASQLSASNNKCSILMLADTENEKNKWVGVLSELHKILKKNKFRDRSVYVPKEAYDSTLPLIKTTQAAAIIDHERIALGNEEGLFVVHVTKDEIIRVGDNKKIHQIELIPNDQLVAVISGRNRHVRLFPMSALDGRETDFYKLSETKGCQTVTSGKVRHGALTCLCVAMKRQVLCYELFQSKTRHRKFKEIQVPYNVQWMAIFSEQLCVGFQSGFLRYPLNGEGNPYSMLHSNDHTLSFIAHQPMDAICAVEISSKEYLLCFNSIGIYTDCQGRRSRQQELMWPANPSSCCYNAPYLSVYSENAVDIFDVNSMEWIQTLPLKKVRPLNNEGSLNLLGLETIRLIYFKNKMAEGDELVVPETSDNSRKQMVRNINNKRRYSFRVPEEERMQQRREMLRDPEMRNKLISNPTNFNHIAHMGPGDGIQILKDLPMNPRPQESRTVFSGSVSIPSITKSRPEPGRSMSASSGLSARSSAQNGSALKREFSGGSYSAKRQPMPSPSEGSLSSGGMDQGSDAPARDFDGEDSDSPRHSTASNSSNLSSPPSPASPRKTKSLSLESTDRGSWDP

Row | SMILES | Ki [1] [nM] | Ki [2] [nM] | Ki [3] [nM] | Ki [4] [nM]
1 | Cc1cnc2[nH]cc(-c3cn[nH]c3)c2c1N1CCCCC1 [Example E2, 5-methyl-4-(1-piperidyl)-3-(1H-pyrazol-4-yl)-1H-pyrrolo[2,3-b]pyridine] | 19.7 | 207 | 36.4 | 102
2 | c1ncc(-c2c[nH]c3nccc(N4CCCCC4)c23)cn1 [Example E20, 4-(1-piperidyl)-3-pyrimidin-5-yl-1H-pyrrolo[2,3-b]pyridine] | 14.2 |  | 40.7 | 516
3 | CN1CCCN(c2ccnc3[nH]cc(C#N)c23)CC1 [Example E30, 4-(4-methyl-1,4-diazepan-1-yl)-1H-pyrrolo[2,3-b]pyridine-3-carbonitrile] | 12.8 | 24.3 | 5.73 | 20.2
4 | CN(C)c1ccnc2[nH]cc(C#N)c12 [Example E31, 4-(dimethylamino)-1H-pyrrolo[2,3-b]pyridine-3-carbonitrile] | 47.9 | 43.6 | 16.7 | 24.1
5 | N#Cc1c[nH]c2nccc(N3CCCCC3)c12 [Example E35, 4-(1-piperidyl)-1H-pyrrolo[2,3-b]pyridine-3-carbonitrile] | 14.3 | 57.9 | 9.01 | 16
6 | N#Cc1c[nH]c2nccc(N3CCCC3)c12 [Example E36, 4-pyrrolidin-1-yl-1H-pyrrolo[2,3-b]pyridine-3-carbonitrile] | 82.1 | 90.6 | 78.9 | 65.8
7 | CNc1ccnc2[nH]cc(C#N)c12 [Example E37, 4-(methylamino)-1H-pyrrolo[2,3-b]pyridine-3-carbonitrile] | 125 | 43.8 | 39.9 | 30.3
8 | CN[C@H]1CCCN(c2ccnc3[nH]cc(-c4cnn(C)c4)c23)C1 [Example E55, (3S)-N-methyl-1-[3-(1-methylpyrazol-4-yl)-1H-pyrrolo[2,3-b]pyridin-4-yl]piperidin-3-amine] | 18.9 | 301 | 7.31 | 129
9 | CN[C@H]1CCCN(c2ccnc3[nH]cc(-c4cncnc4)c23)C1 [Example E57, (3S)-N-methyl-1-(3-pyrimidin-5-yl-1H-pyrrolo[2,3-b]pyridin-4-yl)piperidin-3-amine] | 2.93 | 50700 | 2.34 | 545
10 | CNC1CCCN(c2ccnc3[nH]cc(-c4cncnc4)c23)CC1 (stereo not shown) [Example E68, N-methyl-1-(3-pyrimidin-5-yl-1H-pyrrolo[2,3-b]pyridin-4-yl)azepan-4-amine] | 0.382 | 55.9 | 1.09 | 36.9
11 | N[C@H]1CCCN(c2ccnc3[nH]cc(-c4cncnc4)c23)C1 [Example E69, (3S)-1-(3-pyrimidin-5-yl-1H-pyrrolo[2,3-b]pyridin-4-yl)piperidin-3-amine] | 4.5 | 460 | 2.72 | 274
12 | CN[C@H]1CCCN(c2ccnc3[nH]cc(-c4cnccn4)c23)C1 [Example E72, (3S)-N-methyl-1-(3-pyrazin-2-yl-1H-pyrrolo[2,3-b]pyridin-4-yl)piperidin-3-amine] | 0.629 | 51100 | 2.98 | 268
13 | CCN[C@H]1CCCN(c2ccnc3[nH]cc(-c4cnn(C)c4)c23)C1 [Example E78, (3S)-N-ethyl-1-[3-(1-methylpyrazol-4-yl)-1H-pyrrolo[2,3-b]pyridin-4-yl]piperidin-3-amine] | 3.48 | 105 | 8.51 | 61.5
14 | CCN[C@H]1CCCN(c2ccnc3[nH]cc(-c4cncnc4)c23)C1 [Example E79, (3S)-N-ethyl-1-(3-pyrimidin-5-yl-1H-pyrrolo[2,3-b]pyridin-4-yl)piperidin-3-amine] | 1.23 | 50700 | 2.27 | 448
15 | c1ncc(-c2c[nH]c3nccc(N4CCC[C@H](NC5CC5)C4)c23)cn1 [Example E81, (3S)-N-cyclopropyl-1-(3-pyrimidin-5-yl-1H-pyrrolo[2,3-b]pyridin-4-yl)piperidin-3-amine] | 0.935 | 357 | 3.36 | 184
16 | CN(C)[C@H]1CCCN(c2ccnc3[nH]cc(-c4cncnc4)c23)C1 [Example E82, (3S)-N,N-dimethyl-1-(3-pyrimidin-5-yl-1H-pyrrolo[2,3-b]pyridin-4-yl)piperidin-3-amine] | 17.2 | 648 | 13.1 | 362
17 | CN[C@H]1CCCN(c2ccnc3[nH]cc(-c4cn[nH]c4)c23)C1 [Example E84, (3S)-N-methyl-1-[3-(1H-pyrazol-4-yl)-1H-pyrrolo[2,3-b]pyridin-4-yl]piperidin-3-amine] | 0.522 | 167 | 3.42 | 37.2
18 | N#Cc1c[nH]c2nccc(N3CCCC(c4ccccc4)C3)c12 (stereo not shown) [Example E112, 4-(3-phenyl-1-piperidyl)-1H-pyrrolo[2,3-b]pyridine-3-carbonitrile] |  | 682 | 558 | 728
19 | N#Cc1c[nH]c2nccc(N3CCCC3c3ccccc3)c12 (stereo not shown) [Example E113, 4-(2-phenylpyrrolidin-1-yl)-1H-pyrrolo[2,3-b]pyridine-3-carbonitrile] |  | 388 | 111 | 144

Row | SMILES | Ki [1] [nM] | Ki [2] [nM] | Ki [3] [nM] | Ki [4] [nM]
20 | c1cc(-c2c[nH]c3nccc(N4CCCC5(CCCCN5)C4)c23)cnn1 (stereo not shown) [Example E172, 8-(3-pyridazin-4-yl-1H-pyrrolo[2,3-b]pyridin-4-yl)-1,8-diazaspiro[5.5]undecane] |  | 33.6 | 0.723 | 14.6
21 | c1ncc(-c2c[nH]c3nccc(N4CCC5(CCNC5)CC4)c23)cn1 [Example E190, 8-(3-pyrimidin-5-yl-1H-pyrrolo[2,3-b]pyridin-4-yl)-2,8-diazaspiro[4.5]decane] |  | 9.3 | 0.973 | 8.7
22 | c1ncc(-c2c[nH]c3nccc(N4CCC5(CCNCC5)C4)c23)cn1 [Example E191, 2-(3-pyrimidin-5-yl-1H-pyrrolo[2,3-b]pyridin-4-yl)-2,8-diazaspiro[4.5]decane] |  | 9.28 | 2.05 | 7.7
23 | c1ncc(-c2c[nH]c3nccc(N4CCC[C@]5(CCCCN5)C4)c23)cn1 [Example E192, (6R)-8-(3-pyrimidin-5-yl-1H-pyrrolo[2,3-b]pyridin-4-yl)-1,8-diazaspiro[5.5]undecane] |  | 50500 | 8.33 | 428
24 | c1ncc(-c2c[nH]c3nccc(N4CC5CNCC5C4)c23)cn1 (stereo not shown) [Example E199, 4-(2,3,3a,4,6,6a-hexahydro-1H-pyrrolo[3,4-c]pyrrol-5-yl)-3-pyrimidin-5-yl-1H-pyrrolo[2,3-b]pyridine] |  | 222 | 6.32 | 199
25 | CN1CCN(C(=O)[C@@H]2CCCN2c2ccnc3[nH]cc(C#N)c23)CC1 [Example E204, 4-[(2S)-2-(4-methylpiperazine-1-carbonyl)pyrrolidin-1-yl]-1H-pyrrolo[2,3-b]pyridine-3-carbonitrile] |  | 558 | 119 | 762
26 | CCN1CCCC[C@]12CCCN(c1ccnc3[nH]cc(-c4cncnc4)c13)C2 [Example E208, (6R)-1-ethyl-8-(3-pyrimidin-5-yl-1H-pyrrolo[2,3-b]pyridin-4-yl)-1,8-diazaspiro[5.5]undecane] |  | 1210 | 9.73 | 396
27 | c1ncc(-c2c[nH]c3nccc(OC[C@H]4CCNC4)c23)cn1 [Example E215, 3-pyrimidin-5-yl-4-[[(3S)-pyrrolidin-3-yl]methoxy]-1H-pyrrolo[2,3-b]pyridine] |  | 47.8 | 3.86 | 34.7
28 | c1ncc(-c2c[nH]c3nccc(O[C@@H]4CCCNC4)c23)cn1 [Example E217, 4-[[(3R)-3-piperidyl]oxy]-3-pyrimidin-5-yl-1H-pyrrolo[2,3-b]pyridine] |  | 114 | 4.01 | 77.5
29 | c1ncc(-c2c[nH]c3nccc(OCC4CCCNC4)c23)cn1 (stereo not shown) [Example E220, 4-(3-piperidylmethoxy)-3-pyrimidin-5-yl-1H-pyrrolo[2,3-b]pyridine] |  | 34 | 1.07 | 40.7
30 | c1ncc(-c2c[nH]c3nccc(OC4CCNCC4)c23)cn1 [Example E223, 4-(4-piperidyloxy)-3-pyrimidin-5-yl-1H-pyrrolo[2,3-b]pyridine] |  | 153 | 5.84 | 108
31 | CN1CC[C@H](COc2ccnc3[nH]cc(-c4cncnc4)c23)C1 [Example E225, 4-[[(3S)-1-methylpyrrolidin-3-yl]methoxy]-3-pyrimidin-5-yl-1H-pyrrolo[2,3-b]pyridine] |  | 190 | 11.4 | 140
32 | CN1CCC[C@H](COc2ccnc3[nH]cc(-c4cncnc4)c23)C1 [Example E226, 3-pyrimidin-5-yl-4-[[(3S)-1-methyl-3-piperidyl]methoxy]-1H-pyrrolo[2,3-b]pyridine] |  | 150 | 5 | 111
33 | NCCC1CCN(c2ccnc3[nH]cc(-c4cncnc4)c23)CC1 [Example E238] |  | 14.2 | 1.02 | 18.4
34 | c1ncc(-c2c[nH]c3nccc(NCC4CCCNC4)c23)cn1 (stereo not shown) [Example E239] |  | 103 | 7.85 | 93.3
35 | N#Cc1c[nH]c2nccc(N3CCC3)c12 [Example E240] |  | 38.7 | 8.31 | 21.6
36 | Cn1cc(-c2c[nH]c3nccc(N4CCC[C@](N)(N5CCC(N)CC5)C4)c23)cn1 [Example E241] |  | 543 | 11.9 | 224
37 | c1ncc(-c2c[nH]c3nccc(NC4CCCNC4)c23)cn1 (stereo not shown) [Example E242] |  | 217 | 19.3 | 165
